Patent EP1756142B1, “PSEUDOPEPTIDES GROWTH HORMONE SECRETAGOGUES” (Mediolanum Farmaceutici S.p.A., priority 2004, dated 2008)

How the values were obtained:
GH release [1] = test: stimulation of GH release in vitro
[2] = test system: human pituitary gland tissues; test: binding affinity to human pituitary gland tissues; conditions: compared with Ghrelin, hexarelin, MK 0677 and JMV 1843
GH release [3] = test: GH release in vivo after subcutaneous injection in neonatal rats

CC(C)(N)C(=O)N[C@H](Cc1c[nH]c2ccccc12)C(=O)N[C@@H](C=NOCC(N)=O)Cc1c[nH]c2ccccc12 [(Ia), Aib-D-Trp-D-Trpψ[CH=N∼O]Gly-NH2]
stimulating the GH release in vitro (GH release [1]): remarkably potent
binding affinity [2]: comparable to that of the natural ligand Ghrelin and superior to the binding affinity of the synthetic GH secretagogues
stimulating the GH release in vivo (GH release [3]; in vivo): remarkably potent
amount of growth hormone released (GH release [3]; neonatal rats, injected subcutaneously, compared with MK 0677 and hexarelin): exceeded the amount released when the standard GH secretagogues MK 0677 and hexarelin were administered
